# Assay results published in ChEMBL document CHEMBL1201862, “PubChem BioAssay data set” (2004).
#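 Grown in 96-well plates, cells were treated for 48 hours with each compound at five concentrations. Insufficient inhibition: endpoint recorded as highest concentration tested. Abbreviation: GI50, concentration required for 50% inhibition of growth.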 Activity calls are given as the source filed them. Cut-off read from the data, not from the text of the source: active = GI50 up to about 1.1 µM and inactive = higher.
# Key:
# Assay in all cases: inhibition of tumour cell growth, NCI panel, 48 h
# HCT-15 = system: HCT-15
# UACC-62 = system: UACC-62
# U-251 = system: U-251
# ACHN = system: ACHN
# SW-620 = system: SW-620
# COLO 205 = system: COLO 205
# NCI-H460 = system: NCI-H460
# OVCAR-4 = system: OVCAR-4
# OVCAR-5 = system: OVCAR-5
# EKVX = system: EKVX
# RPMI-8226 = system: RPMI-8226
# IGROV-1 = system: IGROV-1
# Hs-578T = system: Hs-578T
# SK-MEL-5 = system: SK-MEL-5
# SN12C = system: SN12C
# MCF7 = system: MCF7
# HOP-92 = system: HOP-92
# HOP-62 = system: HOP-62
# SR = system: SR
# HCT-116 = system: HCT-116
# DU-145 = system: DU-145
# SNB-19 = system: SNB-19
# SF-295 = system: SF-295
# HCC 2998 = system: HCC 2998
# NCI-H226 = system: NCI-H226
# SF-268 = system: SF-268
# TK-10 = system: TK-10
# A549 = system: A549
# CAKI-1 = system: CAKI-1
# RXF 393 = system: RXF 393
# HT-29 = system: HT-29
# OVCAR-3 = system: OVCAR-3
# MOLT-4 = system: MOLT-4
# 786-0 = system: 786-0
# Malme-3M = system: Malme-3M
# SK-MEL-2 = system: SK-MEL-2
# PC-3 = system: PC-3
# SNB-75 = system: SNB-75
# MDA-MB-231 = system: MDA-MB-231
# LOX IMVI = system: LOX IMVI
# NCI-H23 = system: NCI-H23
# SK-MEL-28 = system: SK-MEL-28
# UO-31 = system: UO-31
# NCI-H522 = system: NCI-H522
# SK-OV-3 = system: SK-OV-3
# MDA-MB-435 = system: MDA-MB-435
# M14 = system: M14
# T47D = system: T47D
# BT-549 = system: BT-549
# CCRF-CEM = system: CCRF-CEM
# SF-539 = system: SF-539
# MDA-N = system: MDA-N
# UACC-257 = system: UACC-257
# HL-60 = system: HL-60
# A498 = system: A498
# KM12 = system: KM12
# NCI/ADR-RES = system: NCI/ADR-RES
# OVCAR-8 = system: OVCAR-8
# K562 = system: K562
smiles,measurement,setting,value
COc1cc(C2S/C(=C/c3ccccc3)C(=O)N2c2cc(Cl)c(Cl)cc2Cl)cc(OC)c1OC (stereo not drawn),GI50,HCT-15,28.7 µM
same,GI50,UACC-62,27.5 µM (inactive)
same,GI50,U-251,44.4 µM (inactive)
same,GI50,ACHN,35.6 µM (inactive)
same,GI50,SW-620,47.6 µM (inactive)
same,GI50,COLO 205,53.6 µM (inactive)
same,GI50,NCI-H460,31.5 µM (inactive)
same,GI50,OVCAR-4,52.6 µM (inactive)
same,GI50,OVCAR-5,41.4 µM (inactive)
same,GI50,EKVX,9.66 µM (inactive)
same,GI50,RPMI-8226,24.6 µM (inactive)
same,GI50,IGROV-1,23.9 µM (inactive)
same,GI50,Hs-578T,9.27 µM (inactive)
same,GI50,SK-MEL-5,22.5 µM (inactive)
same,GI50,SN12C,> 59.8 µM (inactive)
same,GI50,MCF7,30.4 µM (inactive)
same,GI50,HOP-92,13.7 µM (inactive)
same,GI50,HOP-62,28.4 µM (inactive)
same,GI50,SR,25.3 µM (inactive)
same,GI50,HCT-116,23.5 µM (inactive)
same,GI50,DU-145,30.2 µM (inactive)
same,GI50,SNB-19,> 63.1 µM (inactive)
same,GI50,SF-295,49.3 µM (inactive)
same,GI50,HCC 2998,39.1 µM (inactive)
same,GI50,NCI-H226,20.6 µM (inactive)
same,GI50,SF-268,29.6 µM (inactive)
same,GI50,TK-10,> 69.3 µM (inactive)
same,GI50,A549,35.6 µM (inactive)
same,GI50,CAKI-1,> 40.8 µM (inactive)
same,GI50,RXF 393,> 100 µM (inactive)
same,GI50,HT-29,46.2 µM (inactive)
same,GI50,OVCAR-3,24.2 µM (inactive)
same,GI50,MOLT-4,25.2 µM (inactive)
same,GI50,786-0,38.3 µM (inactive)
same,GI50,Malme-3M,26.2 µM (inactive)
same,GI50,SK-MEL-2,41.3 µM (inactive)
same,GI50,PC-3,26.8 µM (inactive)
same,GI50,SNB-75,2.56 µM (inactive)
same,GI50,MDA-MB-231,> 66.8 µM (inactive)
same,GI50,LOX IMVI,24.2 µM (inactive)
same,GI50,NCI-H23,43.2 µM (inactive)
same,GI50,SK-MEL-28,> 64 µM (inactive)
same,GI50,UO-31,26.7 µM (inactive)
same,GI50,NCI-H522,16.9 µM (inactive)
same,GI50,SK-OV-3,> 70.5 µM (inactive)
same,GI50,MDA-MB-435,34 µM (inactive)
same,GI50,M14,37.5 µM (inactive)
same,GI50,T47D,> 50.8 µM (inactive)
same,GI50,BT-549,23.7 µM (inactive)
same,GI50,CCRF-CEM,21.5 µM (inactive)
same,GI50,SF-539,25.6 µM (inactive)
same,GI50,MDA-N,50.5 µM (inactive)
same,GI50,UACC-257,54.5 µM (inactive)
same,GI50,HL-60,20.4 µM (inactive)
same,GI50,A498,44.8 µM (inactive)
same,GI50,KM12,25.7 µM (inactive)
same,GI50,NCI/ADR-RES,30.6 µM (inactive)
same,GI50,OVCAR-8,40 µM (inactive)
same,GI50,K562,29 µM (inactive)
COc1cccc(C2c3cc4c(cc3OC(N3CCCC3)C2C)OCO4)c1O (stereo not drawn),GI50,HCT-15,3.72 µM
same,GI50,UACC-62,4.33 µM (inactive)
same,GI50,U-251,3.49 µM (inactive)
same,GI50,ACHN,6.59 µM (inactive)
same,GI50,SW-620,3.74 µM (inactive)
same,GI50,COLO 205,3.37 µM (inactive)
same,GI50,NCI-H460,4.6 µM (inactive)
same,GI50,OVCAR-4,9.35 µM (inactive)
same,GI50,OVCAR-5,11.3 µM (inactive)
same,GI50,EKVX,9.68 µM (inactive)
same,GI50,RPMI-8226,4.23 µM (inactive)
same,GI50,IGROV-1,7.14 µM (inactive)
same,GI50,Hs-578T,3.04 µM (inactive)
same,GI50,SK-MEL-5,3.38 µM (inactive)
same,GI50,SN12C,4.84 µM (inactive)
same,GI50,MCF7,6.68 µM (inactive)
same,GI50,HOP-92,7.82 µM (inactive)
same,GI50,HOP-62,7.52 µM (inactive)
same,GI50,SR,4.38 µM (inactive)
same,GI50,HCT-116,4.61 µM (inactive)
same,GI50,DU-145,4.41 µM (inactive)
same,GI50,SNB-19,7.6 µM (inactive)
same,GI50,SF-295,3.51 µM (inactive)
same,GI50,HCC 2998,12.2 µM (inactive)
same,GI50,NCI-H226,4.53 µM (inactive)
same,GI50,SF-268,5.97 µM (inactive)
same,GI50,TK-10,3.99 µM (inactive)
same,GI50,A549,5.83 µM (inactive)
same,GI50,CAKI-1,6.32 µM (inactive)
same,GI50,RXF 393,3.58 µM (inactive)
same,GI50,HT-29,3.32 µM (inactive)
same,GI50,OVCAR-3,2.77 µM (inactive)
same,GI50,MOLT-4,6.7 µM (inactive)
same,GI50,786-0,4.89 µM (inactive)
same,GI50,Malme-3M,6.17 µM (inactive)
same,GI50,SK-MEL-2,4.14 µM (inactive)
same,GI50,PC-3,4.49 µM (inactive)
same,GI50,SNB-75,2.4 µM (inactive)
same,GI50,MDA-MB-231,8.02 µM (inactive)
same,GI50,LOX IMVI,5.56 µM (inactive)
same,GI50,NCI-H23,4.08 µM (inactive)
same,GI50,SK-MEL-28,6.5 µM (inactive)
same,GI50,UO-31,8.26 µM (inactive)
same,GI50,NCI-H522,4.44 µM (inactive)
same,GI50,SK-OV-3,4.36 µM (inactive)
same,GI50,MDA-MB-435,1.64 µM (inactive)
same,GI50,M14,3.18 µM (inactive)
same,GI50,T47D,9.95 µM (inactive)
same,GI50,BT-549,3.79 µM (inactive)
same,GI50,CCRF-CEM,4.69 µM (inactive)
same,GI50,SF-539,3.03 µM (inactive)
same,GI50,MDA-N,1.64 µM (inactive)
same,GI50,UACC-257,4.41 µM (inactive)
same,GI50,HL-60,11.3 µM (inactive)
same,GI50,A498,4.89 µM (inactive)
same,GI50,KM12,3.03 µM (inactive)
same,GI50,NCI/ADR-RES,3.7 µM (inactive)
same,GI50,OVCAR-8,7.55 µM (inactive)
same,GI50,K562,3.74 µM (inactive)
